Experimental data: ChEMBL document CHEMBL1201862, “PubChem BioAssay data set” (2004)
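Briefly, cells in 96-well plates were exposed to five compound concentrations for 48 h, and endpoints were estimated by linear interpolation. GI50: concentration for 50% inhibition of growth.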 Calls of active or inactive are those of the source. Rule as the data show it: active = GI50 up to about 1.1 µM and inactive = higher.

Columns and labels:
Assay in all cases: inhibition of tumour cell growth, NCI panel, 48 h
MDA-MB-231 = test system: MDA-MB-231
TK-10 = test system: TK-10
OVCAR-3 = test system: OVCAR-3
SW-620 = test system: SW-620
EKVX = test system: EKVX
UACC-257 = test system: UACC-257
SR = test system: SR
MDA-MB-435 = test system: MDA-MB-435
OVCAR-5 = test system: OVCAR-5
NCI-H522 = test system: NCI-H522
ACHN = test system: ACHN
U-251 = test system: U-251
COLO 205 = test system: COLO 205
UO-31 = test system: UO-31
SNB-19 = test system: SNB-19
SF-295 = test system: SF-295
OVCAR-4 = test system: OVCAR-4
OVCAR-8 = test system: OVCAR-8
HOP-62 = test system: HOP-62
DU-145 = test system: DU-145

| SMILES | GI50 (MDA-MB-231) | GI50 (TK-10) | GI50 (OVCAR-3) | GI50 (SW-620) | GI50 (EKVX) | GI50 (UACC-257) | GI50 (SR) | GI50 (MDA-MB-435) | GI50 (OVCAR-5) | GI50 (NCI-H522) | GI50 (ACHN) | GI50 (U-251) | GI50 (COLO 205) | GI50 (UO-31) | GI50 (SNB-19) | GI50 (SF-295) | GI50 (OVCAR-4) | GI50 (OVCAR-8) | GI50 (HOP-62) | GI50 (DU-145) |
| --- | --- | --- | --- | --- | --- | --- | --- | --- | --- | --- | --- | --- | --- | --- | --- | --- | --- | --- | --- | --- |
| C=CCNC1=C2C[C@@H](C)C[C@@H](OC)[C@H](OC(=O)CCN(C)C)[C@H](C)/C=C(\C)[C@@H](OC(N)=O)[C@H](OC)/C=C\C=C(/C)C(=O)NC(=CC1=O)C2=O | 2.05 µM (inactive) | 0.0755 µM (active) | 0.205 µM (active) | 0.0578 µM (active) | 1.35 µM (inactive) | 0.0914 µM (active) | 0.0204 µM (active) | 0.053 µM (active) | 2.18 µM (inactive) | 0.125 µM (active) | 0.875 µM (active) | 0.203 µM (active) | < 0.0188 µM (active) | 0.822 µM (active) | 1.17 µM (inactive) | 0.134 µM (active) | 3.97 µM (inactive) | 0.324 µM (active) | 0.044 µM (active) | 0.993 µM (active) |
| COc1cc(S(=O)(=O)Nc2nc(-c3ccc(N)cc3)cs2)ccc1Cl | > 100 µM (inactive) | 48 µM (inactive) | 54.3 µM (inactive) | > 100 µM (inactive) | 42.7 µM (inactive) | 57.3 µM (inactive) | 61 µM (inactive) | 83.6 µM (inactive) | > 100 µM (inactive) | 56 µM (inactive) | 66.4 µM (inactive) | 63 µM (inactive) | 32.1 µM (inactive) | 85.7 µM (inactive) | 91.4 µM (inactive) | 43.4 µM (inactive) | 34 µM (inactive) | 64.7 µM (inactive) | > 100 µM (inactive) | > 100 µM (inactive) |
| COC(=O)/C=C/CC(=O)NS(C)(=O)=O | > 10 µM (inactive) | > 10 µM (inactive) | > 10 µM (inactive) | > 10 µM (inactive) | > 10 µM (inactive) | > 10 µM (inactive) | > 10 µM (inactive) | > 10 µM (inactive) | > 10 µM (inactive) | > 10 µM (inactive) | > 10 µM (inactive) | > 10 µM (inactive) | > 10 µM (inactive) | > 10 µM (inactive) | > 10 µM (inactive) | > 10 µM (inactive) | > 10 µM (inactive) | > 10 µM (inactive) | > 10 µM (inactive) | > 10 µM (inactive) |
| CC1=C(C(=O)Nc2ccccc2)C(c2ccc(C3C(C(=O)Nc4ccccc4)=C(C)NC(C)=C3C(=O)Nc3ccccc3)cc2)C(C(=O)Nc2ccccc2)=C(C)N1 | 2.8 µM (inactive) | 6.46 µM (inactive) | 4.38 µM (inactive) | 2.11 µM (inactive) | 4.72 µM (inactive) | 2.13 µM (inactive) | 2.03 µM (inactive) | 1.86 µM (inactive) | 7.35 µM (inactive) | 1.54 µM (inactive) | 2.04 µM (inactive) | 1.49 µM (inactive) | 3.21 µM (inactive) | 9.27 µM (inactive) | 6.31 µM (inactive) | 2.88 µM (inactive) | 6.03 µM (inactive) | 3.03 µM (inactive) | 3.68 µM (inactive) | > 10 µM (inactive) |
| COc1cc(/C=C(\C#N)C(N)=C(C#N)C#N)cc(O)c1O | > 100 µM (inactive) | > 100 µM (inactive) | > 56.4 µM (inactive) | > 76.4 µM (inactive) | > 89.7 µM (inactive) | > 100 µM (inactive) | 35.1 µM (inactive) | 59.3 µM (inactive) | > 100 µM (inactive) | 36 µM (inactive) | > 100 µM (inactive) | > 88.7 µM (inactive) | > 100 µM (inactive) | > 77.8 µM (inactive) | > 87.5 µM (inactive) | > 77.1 µM (inactive) | > 100 µM (inactive) | 91.2 µM (inactive) | > 71.6 µM (inactive) | > 100 µM (inactive) |
| O=C1/C(=C/c2ccc(O)cc2)CCc2ccc([N+](=O)[O-])cc21 | > 100 µM (inactive) | 45.2 µM (inactive) | > 78.2 µM (inactive) | > 100 µM (inactive) | > 89.5 µM (inactive) | 97.7 µM (inactive) | 1.63 µM (inactive) | > 100 µM (inactive) | > 51.5 µM (inactive) | 2.65 µM (inactive) | > 81.3 µM (inactive) | 60.4 µM (inactive) | > 100 µM (inactive) | 23 µM (inactive) | 39.1 µM (inactive) | 63.1 µM (inactive) | > 90.6 µM (inactive) | > 100 µM (inactive) | 73.5 µM (inactive) | 55.3 µM (inactive) |
| O=c1c2ccccc2[nH]c(=S)n1-c1ccc(/N=N/c2cccc3c(O)cccc23)cc1 | 53.3 µM (inactive) | > 100 µM (inactive) | 62.2 µM (inactive) | > 100 µM (inactive) | > 100 µM (inactive) | 50.9 µM (inactive) | 74.5 µM (inactive) | 23 µM (inactive) | 76.7 µM (inactive) | > 100 µM (inactive) | 88.3 µM (inactive) | 87.5 µM (inactive) | 32 µM (inactive) | > 100 µM (inactive) | > 100 µM (inactive) | > 100 µM (inactive) | > 100 µM (inactive) | > 100 µM (inactive) | > 100 µM (inactive) | > 100 µM (inactive) |
| Nc1nccc2c1ncn2C1C=C(CO)C(O)C1O (stereo not given) | > 100 µM (inactive) | > 95.5 µM (inactive) | > 94.4 µM (inactive) | 1.75 µM (inactive) | > 94.6 µM (inactive) | 18.4 µM (inactive) | 3.29 µM (inactive) | > 100 µM (inactive) | 23.4 µM (inactive) | > 100 µM (inactive) | 20.6 µM (inactive) | 51.8 µM (inactive) | 19.7 µM (inactive) | 3.39 µM (inactive) | 62.7 µM (inactive) | > 100 µM (inactive) | 59.4 µM (inactive) | 41.8 µM (inactive) | 30.3 µM (inactive) | > 100 µM (inactive) |
| CC(C)=CCc1cc(C2COc3cc4c(c(O)c3C2=O)C=CC(C)(C)O4)c(O)cc1O (stereo not given) | 14.2 µM (inactive) | 16.8 µM (inactive) | 14.3 µM (inactive) | 22 µM (inactive) | 12.7 µM (inactive) | 12.8 µM (inactive) | 6.78 µM (inactive) | 16 µM (inactive) | 15.6 µM (inactive) | 11.6 µM (inactive) | 16.7 µM (inactive) | 16 µM (inactive) | 20.2 µM (inactive) | 12.8 µM (inactive) | 19.3 µM (inactive) | 17.8 µM (inactive) | 10.6 µM (inactive) | 21.5 µM (inactive) | 17.8 µM (inactive) | 14.5 µM (inactive) |
| COC(=O)CCC1(C)C2CCC1/C(=N/O)C2 (stereo not given) | > 100 µM (inactive) | > 100 µM (inactive) | > 100 µM (inactive) | > 100 µM (inactive) | > 100 µM (inactive) | > 100 µM (inactive) | > 100 µM (inactive) | > 100 µM (inactive) | > 100 µM (inactive) | > 100 µM (inactive) | > 100 µM (inactive) | > 100 µM (inactive) | > 100 µM (inactive) | > 100 µM (inactive) | > 100 µM (inactive) | > 100 µM (inactive) | > 100 µM (inactive) | > 100 µM (inactive) | > 100 µM (inactive) | > 100 µM (inactive) |
| O=C(O)CCNc1[nH]cnc2ncnc1-2 | > 100 µM (inactive) | > 100 µM (inactive) | 0.621 µM (active) | > 100 µM (inactive) | > 100 µM (inactive) | > 100 µM (inactive) | > 100 µM (inactive) | > 100 µM (inactive) | > 100 µM (inactive) | > 100 µM (inactive) | > 100 µM (inactive) | > 100 µM (inactive) | > 100 µM (inactive) | > 100 µM (inactive) | > 100 µM (inactive) | > 100 µM (inactive) | > 100 µM (inactive) | > 100 µM (inactive) | > 100 µM (inactive) | > 100 µM (inactive) |
| COc1ccc(NC(=O)CC(=O)n2nc(C)c(/N=N/c3ccc(C)c(C)c3)c2C)cc1 | > 100 µM (inactive) | 55.1 µM (inactive) | > 100 µM (inactive) | > 100 µM (inactive) | 15.1 µM (inactive) | > 10 µM (inactive) | 43.3 µM (inactive) | > 100 µM (inactive) | > 100 µM (inactive) | > 100 µM (inactive) | 82.6 µM (inactive) | 23 µM (inactive) | > 100 µM (inactive) | 24.5 µM (inactive) | 58.3 µM (inactive) | 54.7 µM (inactive) | > 100 µM (inactive) | 29.7 µM (inactive) | 22.9 µM (inactive) | > 100 µM (inactive) |
| COC(=O)C1C(=O)CC(C)(O)C(C(=O)OC)C1c1ccc(N(C)C)cc1 (stereo not given) | > 100 µM (inactive) | > 100 µM (inactive) | > 100 µM (inactive) | > 100 µM (inactive) | > 100 µM (inactive) | > 100 µM (inactive) | > 100 µM (inactive) | > 100 µM (inactive) | > 100 µM (inactive) | > 100 µM (inactive) | > 100 µM (inactive) | > 100 µM (inactive) | > 100 µM (inactive) | > 100 µM (inactive) | > 100 µM (inactive) | > 100 µM (inactive) | > 100 µM (inactive) | > 100 µM (inactive) | > 100 µM (inactive) | > 100 µM (inactive) |
